Measured values taken from the supplement of paper PMC10307832.

What was measured:
Assay in all cases: relative viability (nuclei count vs DMSO), 5 days (fraction); higher = more cells survive
[1] = compound: O=c1[nH]cc(F)c(=O)[nH]1 [5-Fluorouracil] + O=C(c1cc(Cc2n[nH]c(=O)c3ccccc23)ccc1F)N1CCN(C(=O)C2CC2)CC1 [Olaparib] (partner 8 µM)
In short: (§1)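 Nuclei were stained with Hoechst during a one-step fixation (final 0.05% Triton X-100, 1% formaldehyde, 1 ug/ml Hoechst) carried out 5 days after dosing, then counted on 4× images. The cells, lung cancer lines in 1536-well plates, had been dosed by pin tool the day after seeding with one drug alone or a fixed anchor-drug dose plus five library-drug doses (not always all listed) in √10 steps. Relative viability is the nuclei count in treated wells divided by that in vehicle wells, and each value is the median of duplicate plates.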

[2] = compound: CN[C@@H]1C[C@H]2O[C@@](C)([C@@H]1OC)n1c3ccccc3c3c4c(c5c6ccccc6n2c5c31)C(=O)NC4 [Staurosporine] + O=C(c1cc(Cc2n[nH]c(=O)c3ccccc23)ccc1F)N1CCN(C(=O)C2CC2)CC1 [Olaparib] (partner 8 µM)
In short: as §1

[3] = compound: O=c1[nH]cc(F)c(=O)[nH]1 [5-Fluorouracil] + CS(=O)(=O)N1CCN(Cc2cc3nc(-c4cccc5[nH]ncc45)nc(N4CCOCC4)c3s2)CC1 [Pictilisib] (partner 1 µM)
In short: as §1

[4] = compound: CN[C@@H]1C[C@H]2O[C@@](C)([C@@H]1OC)n1c3ccccc3c3c4c(c5c6ccccc6n2c5c31)C(=O)NC4 [Staurosporine] + COc1cccc2cc(-c3nc([C@H]4CC[C@H](C(=O)O)CC4)n4ncnc(N)c34)[nH]c12 [OSI-027] (partner 0.5 µM)
In short: as §1

Cell Line	relative viability ([1]; first compound 0.02 µM)	relative viability ([1]; first compound 0.2 µM)	relative viability ([1]; first compound 0.6325 µM)	relative viability ([1]; first compound 2 µM)	relative viability ([2]; first compound 0.005 µM)	relative viability ([2]; first compound 0.01581 µM)	relative viability ([2]; first compound 0.05 µM)	relative viability ([2]; first compound 0.1581 µM)	relative viability ([2]; first compound 0.5 µM)	relative viability ([3]; first compound 0.02 µM)	relative viability ([3]; first compound 0.2 µM)	relative viability ([3]; first compound 0.6325 µM)	relative viability ([3]; first compound 2 µM)	relative viability ([4]; first compound 0.005 µM)	relative viability ([4]; first compound 0.01581 µM)	relative viability ([4]; first compound 0.05 µM)	relative viability ([4]; first compound 0.1581 µM)	relative viability ([4]; first compound 0.5 µM)
NCI-H727	0.748	0.821	0.747	0.593	0.638	0.422	0.413	0.434	0.419	0.395	0.464	0.369	0.305	0.422	0.289	0.301	0.291	0.225
CAL-12T	0.701	0.634	0.638	0.365	0.441	0.253	0.252	0.148	0.163	0.461	0.717	0.346	0.394	0.196	0.142	0.166	0.152	0.09
PC-3 [JPC-3]	1.17	1.14	1.09	0.912	1.03	0.603	0.569	0.385	0.332	0.77	0.757	0.796	0.612	0.678	0.295	0.39	0.303	0.229
NCI-H23	0.317	0.373	0.256	0.229	0.232	0.138	0.183	0.135	0.102	0.565	0.53	0.374	0.251	0.518	–	0.248	0.16	0.0998
NCI-H838	0.801	0.691	0.45	0.296	0.24	0.175	0.154	0.122	0.0873	0.414	0.402	0.306	0.269	0.207	0.153	0.196	0.162	–
HCC-366	0.387	0.397	0.199	0.0788	0.247	–	0.12	0.0287	0.0185	0.166	0.156	0.108	0.0793	0.952	–	0.463	0.0332	0.0243
NCI-H1666	0.861	0.67	0.647	0.625	0.682	0.567	0.583	0.476	0.432	0.659	0.293	0.292	0.285	0.658	0.542	0.548	0.425	0.262
HCC-44	1.03	1.02	0.979	0.651	1.04	–	0.75	0.456	0.351	0.784	0.58	0.46	0.33	0.358	0.131	0.212	0.174	0.136
A-427	0.68	0.521	0.674	0.385	0.694	0.482	0.284	0.189	0.139	0.664	0.823	0.581	0.587	0.363	0.158	0.153	–	0.121
NCI-H460	0.326	0.347	0.155	0.105	0.27	0.134	0.159	0.0506	0.0242	0.443	0.384	0.155	0.0868	0.47	0.303	0.329	0.0118	0.006
NCI-H441	0.514	0.438	0.292	0.269	0.352	0.319	0.205	0.176	0.115	0.453	0.442	0.35	0.243	0.368	0.188	0.175	0.176	0.137
ABC-1	0.782	0.716	1	0.51	0.429	0.289	0.564	0.211	0.213	0.885	0.682	0.59	0.599	0.209	0.14	0.0972	0.0855	0.0778
LK-2	0.589	0.814	0.529	0.428	–	0.432	0.518	0.289	0.0843	0.635	0.575	0.374	0.452	0.256	0.158	0.244	0.151	0.111
NCI-H2085	0.743	0.784	0.693	0.677	0.694	0.471	0.556	0.398	0.344	0.461	0.504	0.445	0.507	0.597	0.168	0.249	0.155	0.148
NCI-H650	0.282	0.323	0.26	0.293	0.313	0.246	0.25	0.229	0.124	0.823	0.674	0.45	0.387	0.34	0.271	0.257	0.277	0.255
SK-MES-1	0.656	0.32	0.296	0.264	0.299	0.192	0.158	0.132	0.156	0.34	0.338	0.297	0.196	0.202	0.18	0.147	0.134	0.106
NCI-H1793	0.787	0.9	0.613	0.483	0.815	–	0.3	0.15	0.14	0.37	0.376	0.303	0.247	0.378	–	0.174	0.0897	0.102
NCI-H3122	0.51	0.542	0.299	0.216	0.575	–	0.481	–	0.281	0.608	0.662	0.312	0.256	1.25	–	0.857	0.155	0.0733
